From patent publication US20210138025A1, “CATIONIC PEPTIDES WITH IMMUNOMODULATORY AND/OR ANTI-BIOFILM ACTIVITIES” (priority 2018, published 2021)
Non-standard residues stand in square brackets, D forms with d. No end group written: not given here. hArg = N=C(N)NCCCC[C@H](N)C(=O)O; Agb = N=C(N)NCC[C@H](N)C(=O)O; Agp = N=C(N)NC[C@H](N)C(=O)O; Orn = NCCC[C@H](N)C(=O)O; Dab = NCC[C@H](N)C(=O)O; Dap = NC[C@H](N)C(=O)O

tested on: S. aureus (MRSA SAP0017); format: cell-based, Staphylococcus aureus; details: SPOT synthesized control peptides, determined as in Table 5; Table 7
Method: Methods of assessment of anti-biofilm activity: MRSA S. aureus strain SAP0017 biofilm formation was initially analyzed using a static abiotic solid surface assay as described elsewhere (de la Fuente-Nunez et al., 2012) and shown graphically in FIG. 2. Dilutions (1/100) of overnight cultures were incubated in BM2 biofilm-adjusted medium [62 mM potassium phosphate buffer (pH 7), 7 mM (NH4)2SO4, 2 mM MgSO4, 10 μM FeSO4, 0.4% (wt/vol) glucose, 0.5% (wt/vol) Casamino Acids], or a nutrient rich medium such as Tryptic soy broth supplemented with 1% glucose, in polypropylene microtiter plates (Falcon, United States) in the absence (control) or presence of peptide. Peptide was added at time zero (prior to adding the diluted, overnight cultures) in varying concentrations, and the amount biofilm formation was recorded after 22-46 h incubation for most bacteria. To quantify biofilm growth, planktonic cells were removed and biofilm cells adhering to the side of the wells were stained with crystal violet, and absorbance at 595 nm was measured using a microtiter plate reader (Bio-Tek Instruments Inc., United States).

In order of rising “% Biofilm Inhibition” value:
1. C95 (V[Dab]LIVAVRIWRR) [Peptide C95]  71%
2. C93 (VRLIVAV[Dap]IWRR) [Peptide C93]  71%
3. C69 (V[Agb]LIVAVRIWRR) [Peptide C69]  81%
4. C96 (VR[Dab]IVAVRIWRR) [Peptide C96]  89%
5. C104 (VRLIVAVRIW[Dab]R) [Peptide C104]  93%
6. C101 (VRLIVAV[Dab]IWRR-NH2; N-terminus assumed; SMILES CC[C@H](C)[C@H](NC(=O)[C@H](CCN)NC(=O)[C@@H](NC(=O)[C@H](C)NC(=O)[C@@H](NC(=O)[C@@H](NC(=O)[C@H](CC(C)C)NC(=O)[C@H](CCCNC(=N)N)NC(=O)[C@@H](N)C(C)C)[C@@H](C)CC)C(C)C)C(C)C)C(=O)N[C@@H](Cc1c[nH]c2ccccc12)C(=O)N[C@@H](CCCNC(=N)N)C(=O)N[C@@H](CCCNC(=N)N)C(N)=O) [Peptide C101]  103%
7. C59 (VR[Agp]IVAVRIWRR-NH2; N-terminus assumed; SMILES CC[C@H](C)[C@H](NC(=O)[C@H](CCCNC(=N)N)NC(=O)[C@@H](NC(=O)[C@H](C)NC(=O)[C@@H](NC(=O)[C@@H](NC(=O)[C@H](CNC(=N)N)NC(=O)[C@H](CCCNC(=N)N)NC(=O)[C@@H](N)C(C)C)[C@@H](C)CC)C(C)C)C(C)C)C(=O)N[C@@H](Cc1c[nH]c2ccccc12)C(=O)N[C@@H](CCCNC(=N)N)C(=O)N[C@@H](CCCNC(=N)N)C(N)=O) [Peptide C59]  104%
8. C100 (VRLIVA[Dab]RIWRR-NH2; N-terminus assumed; SMILES CC[C@H](C)[C@H](NC(=O)[C@H](CCCNC(=N)N)NC(=O)[C@H](CCN)NC(=O)[C@H](C)NC(=O)[C@@H](NC(=O)[C@@H](NC(=O)[C@H](CC(C)C)NC(=O)[C@H](CCCNC(=N)N)NC(=O)[C@@H](N)C(C)C)[C@@H](C)CC)C(C)C)C(=O)N[C@@H](Cc1c[nH]c2ccccc12)C(=O)N[C@@H](CCCNC(=N)N)C(=O)N[C@@H](CCCNC(=N)N)C(N)=O) [Peptide C100]  104%
9. C109 (VRLIVA[Orn]RIWRR-NH2; N-terminus assumed; SMILES CC[C@H](C)[C@H](NC(=O)[C@H](CCCNC(=N)N)NC(=O)[C@H](CCCN)NC(=O)[C@H](C)NC(=O)[C@@H](NC(=O)[C@@H](NC(=O)[C@H](CC(C)C)NC(=O)[C@H](CCCNC(=N)N)NC(=O)[C@@H](N)C(C)C)[C@@H](C)CC)C(C)C)C(=O)N[C@@H](Cc1c[nH]c2ccccc12)C(=O)N[C@@H](CCCNC(=N)N)C(=O)N[C@@H](CCCNC(=N)N)C(N)=O) [Peptide C109]  104%
10. C108 (VRLI[Orn]AVRIWRR-NH2; N-terminus assumed; SMILES CC[C@H](C)[C@H](NC(=O)[C@H](CC(C)C)NC(=O)[C@H](CCCNC(=N)N)NC(=O)[C@@H](N)C(C)C)C(=O)N[C@@H](CCCN)C(=O)N[C@@H](C)C(=O)N[C@H](C(=O)N[C@@H](CCCNC(=N)N)C(=O)N[C@H](C(=O)N[C@@H](Cc1c[nH]c2ccccc12)C(=O)N[C@@H](CCCNC(=N)N)C(=O)N[C@@H](CCCNC(=N)N)C(N)=O)[C@@H](C)CC)C(C)C) [Peptide C108]  104%
11. C67 (VRLIVAVRIW[Agp]R-NH2; N-terminus assumed; SMILES CC[C@H](C)[C@H](NC(=O)[C@H](CCCNC(=N)N)NC(=O)[C@@H](NC(=O)[C@H](C)NC(=O)[C@@H](NC(=O)[C@@H](NC(=O)[C@H](CC(C)C)NC(=O)[C@H](CCCNC(=N)N)NC(=O)[C@@H](N)C(C)C)[C@@H](C)CC)C(C)C)C(C)C)C(=O)N[C@@H](Cc1c[nH]c2ccccc12)C(=O)N[C@@H](CNC(=N)N)C(=O)N[C@@H](CCCNC(=N)N)C(N)=O) [Peptide C67]  105%
12. C64 (VRLIVAV[Agp]IWRR) [Peptide C64]  107%

same assay, conditions: SPOT synthesized peptide, ~12.5 μM, clinical MRSA strain, crystal violet assay

In order of falling “% Residual MRSA biofilm growth compared to untreated control” value:
1. KKQKKIWRRILV (KKQKKIWRRILV-NH2) [Mmax-16]  105%
2. IVKWIAQWKLVG (IVKWIAQWKLVG-NH2) [Imax-10]  100%
3. VOrnLIVAVRIWRR (V[Orn]LIVAVRIWRR-NH2; N-terminus assumed; SMILES CC[C@H](C)[C@H](NC(=O)[C@H](CCCNC(=N)N)NC(=O)[C@@H](NC(=O)[C@H](C)NC(=O)[C@@H](NC(=O)[C@@H](NC(=O)[C@H](CC(C)C)NC(=O)[C@H](CCCN)NC(=O)[C@@H](N)C(C)C)[C@@H](C)CC)C(C)C)C(C)C)C(=O)N[C@@H](Cc1c[nH]c2ccccc12)C(=O)N[C@@H](CCCNC(=N)N)C(=O)N[C@@H](CCCNC(=N)N)C(N)=O) [Peptide 1018-k26]  63%
4. DabRLIVAVRIWRR ([Dab]RLIVAVRIWRR-NH2; N-terminus assumed; SMILES CC[C@H](C)[C@H](NC(=O)[C@H](CCCNC(=N)N)NC(=O)[C@@H](NC(=O)[C@H](C)NC(=O)[C@@H](NC(=O)[C@@H](NC(=O)[C@H](CC(C)C)NC(=O)[C@H](CCCNC(=N)N)NC(=O)[C@@H](N)CCN)[C@@H](C)CC)C(C)C)C(C)C)C(=O)N[C@@H](Cc1c[nH]c2ccccc12)C(=O)N[C@@H](CCCNC(=N)N)C(=O)N[C@@H](CCCNC(=N)N)C(N)=O) [Peptide 1018-k13]  59%
5. VRLIVHarVRIWRR (VRLIV[hArg]VRIWRR-NH2; N-terminus assumed; SMILES CC[C@H](C)[C@H](NC(=O)[C@H](CCCNC(=N)N)NC(=O)[C@@H](NC(=O)[C@H](CCCCNC(=N)N)NC(=O)[C@@H](NC(=O)[C@@H](NC(=O)[C@H](CC(C)C)NC(=O)[C@H](CCCNC(=N)N)NC(=O)[C@@H](N)C(C)C)[C@@H](C)CC)C(C)C)C(C)C)C(=O)N[C@@H](Cc1c[nH]c2ccccc12)C(=O)N[C@@H](CCCNC(=N)N)C(=O)N[C@@H](CCCNC(=N)N)C(N)=O) [Peptide 1018-r30]  57%
6. GbutRLIVAVRIWRR ([Agb]RLIVAVRIWRR-NH2; N-terminus assumed; SMILES CC[C@H](C)[C@H](NC(=O)[C@H](CCCNC(=N)N)NC(=O)[C@@H](NC(=O)[C@H](C)NC(=O)[C@@H](NC(=O)[C@@H](NC(=O)[C@H](CC(C)C)NC(=O)[C@H](CCCNC(=N)N)NC(=O)[C@@H](N)CCNC(=N)N)[C@@H](C)CC)C(C)C)C(C)C)C(=O)N[C@@H](Cc1c[nH]c2ccccc12)C(=O)N[C@@H](CCCNC(=N)N)C(=O)N[C@@H](CCCNC(=N)N)C(N)=O) [Peptide 1018-r13]  47%
7. VRLIVAVHarIWRR (VRLIVAV[hArg]IWRR-NH2; N-terminus assumed; SMILES CC[C@H](C)[C@H](NC(=O)[C@H](CCCCNC(=N)N)NC(=O)[C@@H](NC(=O)[C@H](C)NC(=O)[C@@H](NC(=O)[C@@H](NC(=O)[C@H](CC(C)C)NC(=O)[C@H](CCCNC(=N)N)NC(=O)[C@@H](N)C(C)C)[C@@H](C)CC)C(C)C)C(C)C)C(=O)N[C@@H](Cc1c[nH]c2ccccc12)C(=O)N[C@@H](CCCNC(=N)N)C(=O)N[C@@H](CCCNC(=N)N)C(N)=O) [Peptide 1018-r32]  45%
8. OrnRLIVAVRIWRR ([Orn]RLIVAVRIWRR-NH2; N-terminus assumed; SMILES CC[C@H](C)[C@H](NC(=O)[C@H](CCCNC(=N)N)NC(=O)[C@@H](NC(=O)[C@H](C)NC(=O)[C@@H](NC(=O)[C@@H](NC(=O)[C@H](CC(C)C)NC(=O)[C@H](CCCNC(=N)N)NC(=O)[C@@H](N)CCCN)[C@@H](C)CC)C(C)C)C(C)C)C(=O)N[C@@H](Cc1c[nH]c2ccccc12)C(=O)N[C@@H](CCCNC(=N)N)C(=O)N[C@@H](CCCNC(=N)N)C(N)=O) [Peptide 1018-k25]  44%
9. VRLIVAVRIWHarR (VRLIVAVRIW[hArg]R-NH2; N-terminus assumed; SMILES CC[C@H](C)[C@H](NC(=O)[C@H](CCCNC(=N)N)NC(=O)[C@@H](NC(=O)[C@H](C)NC(=O)[C@@H](NC(=O)[C@@H](NC(=O)[C@H](CC(C)C)NC(=O)[C@H](CCCNC(=N)N)NC(=O)[C@@H](N)C(C)C)[C@@H](C)CC)C(C)C)C(C)C)C(=O)N[C@@H](Cc1c[nH]c2ccccc12)C(=O)N[C@@H](CCCCNC(=N)N)C(=O)N[C@@H](CCCNC(=N)N)C(N)=O) [Peptide 1018-r35]  33%
10. VRLIVAVRIWRHar (VRLIVAVRIWR[hArg]-NH2; N-terminus assumed; SMILES CC[C@H](C)[C@H](NC(=O)[C@H](CCCNC(=N)N)NC(=O)[C@@H](NC(=O)[C@H](C)NC(=O)[C@@H](NC(=O)[C@@H](NC(=O)[C@H](CC(C)C)NC(=O)[C@H](CCCNC(=N)N)NC(=O)[C@@H](N)C(C)C)[C@@H](C)CC)C(C)C)C(C)C)C(=O)N[C@@H](Cc1c[nH]c2ccccc12)C(=O)N[C@@H](CCCNC(=N)N)C(=O)N[C@@H](CCCCNC(=N)N)C(N)=O) [Peptide 1018-r36]  27%
11. VRLIVAVRIWROrn (VRLIVAVRIWR[Orn]-NH2; N-terminus assumed; SMILES CC[C@H](C)[C@H](NC(=O)[C@H](CCCNC(=N)N)NC(=O)[C@@H](NC(=O)[C@H](C)NC(=O)[C@@H](NC(=O)[C@@H](NC(=O)[C@H](CC(C)C)NC(=O)[C@H](CCCNC(=N)N)NC(=O)[C@@H](N)C(C)C)[C@@H](C)CC)C(C)C)C(C)C)C(=O)N[C@@H](Cc1c[nH]c2ccccc12)C(=O)N[C@@H](CCCNC(=N)N)C(=O)N[C@@H](CCCN)C(N)=O) [Peptide 1018-k36]  20%
